Results as given in patent US9714252B2, “Cyclic sulfonamides as sodium channel blockers” (priority 2012, dated 2017).
Where two headings read alike, the source gives them in different places.

Target: human Nav1.7 (Homo sapiens (Human), UniProt Q15858)
Assay: FLIPR sodium dye assay (CoroNa Green) with KCl and test article pre-incubation, recombinant Nav1.7/HEK293 cells
Type: cell-based
[1] = recombinant human Nav1.7 in HEK293, veratridine + scorpion venom stimulation

Chain of human Nav1.7 (Q15858 with tags, fused parts or gaps limits assumed): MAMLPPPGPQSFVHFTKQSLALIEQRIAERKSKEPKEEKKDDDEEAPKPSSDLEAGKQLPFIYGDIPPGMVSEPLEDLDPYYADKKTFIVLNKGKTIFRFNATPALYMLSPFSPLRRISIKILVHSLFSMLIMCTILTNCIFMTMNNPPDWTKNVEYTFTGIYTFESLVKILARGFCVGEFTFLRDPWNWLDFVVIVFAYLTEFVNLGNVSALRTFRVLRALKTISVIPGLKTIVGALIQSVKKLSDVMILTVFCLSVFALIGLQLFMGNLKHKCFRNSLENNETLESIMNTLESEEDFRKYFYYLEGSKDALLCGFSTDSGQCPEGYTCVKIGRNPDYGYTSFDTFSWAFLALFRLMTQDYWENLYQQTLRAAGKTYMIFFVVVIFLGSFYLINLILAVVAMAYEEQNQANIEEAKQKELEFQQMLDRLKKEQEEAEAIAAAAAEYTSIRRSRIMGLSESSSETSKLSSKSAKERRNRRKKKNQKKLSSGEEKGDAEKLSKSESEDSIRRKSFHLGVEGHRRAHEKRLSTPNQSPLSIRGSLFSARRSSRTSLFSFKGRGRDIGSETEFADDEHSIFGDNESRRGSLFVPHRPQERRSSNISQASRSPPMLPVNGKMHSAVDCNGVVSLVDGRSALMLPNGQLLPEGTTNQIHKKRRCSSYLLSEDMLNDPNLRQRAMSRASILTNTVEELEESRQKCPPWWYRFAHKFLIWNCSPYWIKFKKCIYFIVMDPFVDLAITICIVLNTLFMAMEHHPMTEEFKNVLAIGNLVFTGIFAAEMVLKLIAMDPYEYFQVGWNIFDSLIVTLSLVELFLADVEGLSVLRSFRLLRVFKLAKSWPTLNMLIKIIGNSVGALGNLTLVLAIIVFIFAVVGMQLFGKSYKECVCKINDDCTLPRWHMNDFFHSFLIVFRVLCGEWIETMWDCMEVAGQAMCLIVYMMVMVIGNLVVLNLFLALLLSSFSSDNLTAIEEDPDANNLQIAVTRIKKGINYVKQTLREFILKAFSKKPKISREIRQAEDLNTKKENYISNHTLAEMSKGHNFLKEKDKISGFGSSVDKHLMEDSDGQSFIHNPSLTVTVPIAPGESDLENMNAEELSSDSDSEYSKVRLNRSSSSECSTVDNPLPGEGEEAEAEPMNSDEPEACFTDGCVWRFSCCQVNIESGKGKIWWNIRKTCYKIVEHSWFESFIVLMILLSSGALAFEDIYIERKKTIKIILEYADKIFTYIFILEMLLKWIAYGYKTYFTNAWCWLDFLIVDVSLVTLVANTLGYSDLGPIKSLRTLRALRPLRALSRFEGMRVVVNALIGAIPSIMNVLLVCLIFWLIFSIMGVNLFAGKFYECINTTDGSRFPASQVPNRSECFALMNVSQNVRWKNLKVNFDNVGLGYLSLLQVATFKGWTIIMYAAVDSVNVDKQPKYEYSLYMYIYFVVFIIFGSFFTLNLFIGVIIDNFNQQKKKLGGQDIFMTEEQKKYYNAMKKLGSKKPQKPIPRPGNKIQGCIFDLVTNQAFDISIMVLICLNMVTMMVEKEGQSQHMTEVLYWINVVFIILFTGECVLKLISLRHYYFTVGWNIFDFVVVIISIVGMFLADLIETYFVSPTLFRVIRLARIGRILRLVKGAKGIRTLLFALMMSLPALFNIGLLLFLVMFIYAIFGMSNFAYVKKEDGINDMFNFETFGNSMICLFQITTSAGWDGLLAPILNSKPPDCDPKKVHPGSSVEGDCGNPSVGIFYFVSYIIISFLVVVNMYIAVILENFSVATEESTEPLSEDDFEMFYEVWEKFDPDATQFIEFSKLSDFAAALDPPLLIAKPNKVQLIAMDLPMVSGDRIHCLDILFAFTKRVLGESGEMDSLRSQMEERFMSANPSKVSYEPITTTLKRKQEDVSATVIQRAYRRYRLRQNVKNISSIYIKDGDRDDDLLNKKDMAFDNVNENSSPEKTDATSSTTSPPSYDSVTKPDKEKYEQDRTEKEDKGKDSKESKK

| Compound | IC50 [1] | IC50 |
| --- | --- | --- |
| Cn1nccc1-c1cc(Cl)ccc1Oc1ccc2c(c1)CN(c1nccs1)S2(=O)=O [Compound 3, 5-(4-chloro-2-(1-methyl-1H-pyrazol-5-yl)phenoxy)-2-(thiazol-2-yl)-2,3-dihydrobenzo[d]isothiazole 1,1-dioxide] | 9100 nM | – |
| O=S1(=O)c2ccc(-c3ccc(Oc4ccc(C(F)(F)F)cc4)cc3)cc2CCN1c1nccs1 [Compound 7, 2-(thiazol-2-yl)-6-(4-(4-(trifluoromethyl)phenoxy)phenyl)-3,4-dihydro-2H-benzo[e][1,2]thiazine 1,1-dioxide] | 7090 nM | – |
| O=S1(=O)c2ccc(Oc3ccccc3-c3ccccc3)cc2CCN1c1nccs1 [Compound 6, 6-([1,1′-biphenyl]-2-yloxy)-2-(thiazol-2-yl)-3,4-dihydro-2H-benzo[e][1,2]thiazine 1,1-dioxide] | – | 1700 nM |
| O=S1(=O)c2ccc(N3CCC4(CC3)OCc3ccccc34)cc2CCN1c1nccs1 [Compound 5, 6-(3H-spiro[isobenzofuran-1,4′-piperidin]-1′-yl)-2-(thiazol-2-yl)-3,4-dihydro-2H-benzo[e][1,2]thiazine 1,1-dioxide] | – | 766 nM |
| O=S1(=O)c2ccc(Oc3ccccc3-c3ccccc3)cc2CN1c1nccs1 [Compound 2, 5-([1,1′-biphenyl]-2-yloxy)-2-(thiazol-2-yl)-2,3-dihydrobenzo[d]isothiazole 1,1-dioxide] | > 20000 nM | – |
| O=S1(=O)c2ccc(N3CCC4(CC3)OCc3ccccc34)cc2CN1c1nccs1 [Compound 4, 5-(3H-spiro[isobenzofuran-1,4′-piperidin]-1′-yl)-2-(thiazol-2-yl)-2,3-dihydrobenzo[d]isothiazole 1,1-dioxide] | 1380 nM | – |
| O=S1(=O)c2ccc(Oc3ccc(C(F)(F)F)cc3-c3ccnnc3)cc2CN1c1nccs1 [Compound 1, 5-(2-(pyridazin-4-yl)-4-(trifluoromethyl)phenoxy)-2-(thiazol-2-yl)-2,3-dihydrobenzo[d]isothiazole 1,1-dioxide] | 1740 nM | – |
